Data as given in the supplement of paper PMC11061612.

Columns and labels:
[1] = tested on: EW-11 (Ewing's Sarcoma); assay: combination Emax (second highest fraction inhibited in the dose matrix, 72 h); higher = more inhibition; extreme values may be limits of the assay
Procedure, shortened: (§1)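 Cell lines grown in DMEM/F12 or RPMI with 10% FBS were plated in 1536-well plates and held 24 hours at 37°C, 5% CO2 before 72 hours of exposure to two-drug dose matrices, with DMSO typically at 0.2%. CellTiter-Glo 2.0 luminescence gave viability, which was converted to inhibition. Vehicle wells were set to 0 and blank wells to 1. Combination Emax is the second-highest inhibition in the matrix, and Bliss excess is the observed combination effect minus the expected EA + EB − EA·EB, where EA and EB are the single-agent effects.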

[2] = tested on: LNZTA3WT4 (Low Grade Glioma); assay: as above
Procedure, shortened: as §1

[3] = tested on: OE21 (Esophageal Squamous Cell Carcinoma); assay: as above
Procedure, shortened: as §1

[4] = tested on: BE2-M17 (Neuroblastoma); assay: as above
Procedure, shortened: as §1

[5] = tested on: NUGC-4 (Gastric Carcinoma); assay: as above
Procedure, shortened: as §1

[6] = tested on: SW1573 (Lung Adenocarcinoma); assay: as above
Procedure, shortened: as §1

[7] = tested on: MHH-CALL-2 (B-Lymphoblastic Leukemia); assay: as above
Procedure, shortened: as §1

[8] = tested on: LCLC-97TM1 (Non-Small Cell Lung Carcinoma); assay: as above
Procedure, shortened: as §1

[9] = tested on: CAL-72 (Osteosarcoma); assay: as above
Procedure, shortened: as §1

[10] = tested on: FTC-133 (Thyroid Gland Carcinoma); assay: as above
Procedure, shortened: as §1

[11] = tested on: NCI-H2052 (Mesothelioma); assay: as above
Procedure, shortened: as §1

[12] = tested on: HuCCT1 (Biliary Tract Carcinoma); assay: as above
Procedure, shortened: as §1

[13] = tested on: HeLa (Cervical Carcinoma); assay: as above
Procedure, shortened: as §1

[14] = tested on: SNU-16 (Gastric Carcinoma); assay: as above
Procedure, shortened: as §1

[15] = tested on: L-428 (Hodgkin's Lymphoma); assay: as above
Procedure, shortened: as §1

[16] = tested on: LNZTA3WT4 (Low Grade Glioma); assay: Bliss excess, mean over the matrix (fraction); higher = more synergy
Procedure, shortened: as §1

[17] = tested on: FTC-133 (Thyroid Gland Carcinoma); assay: as above
Procedure, shortened: as §1

[18] = tested on: YAPC (Pancreatic Carcinoma); assay: as above
Procedure, shortened: as §1

[19] = tested on: Detroit562 (Head and Neck Carcinoma); assay: as above
Procedure, shortened: as §1

[20] = tested on: Hs-746T (Gastric Carcinoma); assay: as above
Procedure, shortened: as §1
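For Bliss excess, mean over the matrix in this document: after 72 h of two-drug dosing.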

| Structure (SMILES) | combination Emax [1] | combination Emax [2] | combination Emax [3] | combination Emax [4] | combination Emax [5] | combination Emax [6] | combination Emax [7] | combination Emax [8] | combination Emax [9] | combination Emax [10] | combination Emax [11] | combination Emax [12] | combination Emax [13] | combination Emax [14] | combination Emax [15] | Bliss excess [16] | Bliss excess [17] | Bliss excess [18] | Bliss excess [19] | Bliss excess [20] |
| --- | --- | --- | --- | --- | --- | --- | --- | --- | --- | --- | --- | --- | --- | --- | --- | --- | --- | --- | --- | --- |
| CC1(C)CCC(CN2CCN(c3ccc(C(=O)NS(=O)(=O)c4ccc(NCC5CCOCC5)c([N+](=O)[O-])c4)c(Oc4cnc5[nH]ccc5c4)c3)CC2)=C(c2ccc(Cl)cc2)C1 [Venetoclax] + C=CCn1c(=O)c2cnc(Nc3ccc(N4CCN(C)CC4)cc3)nc2n1-c1cccc(C(C)(C)O)n1 [AZD1775] (first compound max 1 µM, partner max 1 µM) | 0.715 | 0.917 | 0.636 | 0.825 | 0.312 | 0.407 | 0.681 | 0.891 | 0.924 | 0.86 | 0.249 | 0.69 | 0.573 | 0.912 | 0.851 | 0.0509 | 0.0065 | -0.0356 | -0.0478 | -0.115 |
| NC1(C(=O)N[C@@H](CCO)c2ccc(Cl)cc2)CCN(c2ncnc3[nH]ccc23)CC1 [Capivasertib] + C[C@@H]1COCCN1C2=NC(=NC(=C2)C3(CC3)[S@](=N)(=O)C)C4=C5C=CNC5=NC=C4 [AZD6738] (first compound max 10 µM, 7x7, partner max 10 µM) | 0.753 | 0.79 | 0.858 | 0.702 | 0.469 | 0.461 | 0.954 | 0.873 | 0.842 | 0.802 | 0.57 | 0.688 | 0.518 | 0.973 | 0.77 | -0.027 | -0.042 | 0.0093 | -0.0137 | -0.0747 |
| CS(=O)(=O)CCNCc1ccc(-c2ccc3ncnc(Nc4ccc(OCc5cccc(F)c5)c(Cl)c4)c3c2)o1 [Lapatinib] + C[C@@H](Oc1cc(-c2cnn(C3CCNCC3)c2)cnc1N)c1c(Cl)ccc(F)c1Cl [Crizotinib] (first compound max 10 µM, 7x7, partner max 10 µM) | 0.936 | 0.872 | 0.936 | 0.868 | 0.808 | 0.462 | 1 | 0.979 | 0.906 | 0.84 | 0.61 | 0.883 | 0.859 | 0.973 | 0.913 | -0.0665 | -0.0012 | -0.0168 | 0.0107 | 0.0079 |
| Cc1c2c(nn1C)CSCc1cc(n(C)n1)CSc1cc(c3ccccc3c1)OCCCc1c(C(=O)O)n(C)c3c-2c(Cl)ccc13 [AZD5991] + C1CN(CCC1(C(=O)N[C@@H](CCO)C2=CC=C(C=C2)Cl)N)C3=NC=NC4=C3C=CN4 [Capivasertib] (first compound max 1 µM, 7x7, partner max 3 µM) | 0.897 | 0.237 | 0.631 | 0.966 | 0.215 | 0.231 | 1 | 0.32 | 0.415 | 0.663 | 0.265 | 0.162 | 0.671 | 0.996 | 0.155 | 0.0495 | 0.0062 | -0.0095 | -0.0269 | 0.0327 |
| CC1(C)CCC(CN2CCN(c3ccc(C(=O)NS(=O)(=O)c4ccc(NCC5CCOCC5)c([N+](=O)[O-])c4)c(Oc4cnc5[nH]ccc5c4)c3)CC2)=C(c2ccc(Cl)cc2)C1 [Venetoclax] + COc1cc(Nc2ncc3c(n2)-c2ccc(Cl)cc2C(c2c(F)cccc2OC)=NC3)ccc1C(=O)O [Alisertib] (first compound max 1 µM, 7x7, partner max 10 µM) | 0.649 | 0.472 | 0.382 | 0.901 | 0.166 | 0.168 | 0.733 | 0.497 | 0.591 | 0.416 | 0.425 | 0.365 | 0.702 | 0.955 | 0.363 | 0.023 | 0.0138 | -0.0354 | -0.043 | 0.0096 |
| CN(CCO)CC[C@H](CSc1ccccc1)Nc1ccc(S(=O)(=O)NC(=O)c2ccc(N3CCC([C@@H](O)c4ccccc4-c4ccc(Cl)cc4)CC3)cc2)cc1S(=O)(=O)C(F)(F)F [AZD4320] + CN(C)CCCOc1ccc(-c2ccc3ncc4c(c3c2)n(C2CCOCC2)c(=O)n4C)cn1 [AZD0156] (first compound max 1 µM, 7x7, partner max 1 µM) | 0.854 | 0.0987 | 0.158 | 0.258 | 0.174 | 0.128 | 0.391 | 0.107 | 0.332 | 0.44 | 0.201 | 0.251 | 0.0679 | 0.322 | 0.828 | -0.0259 | 0.0392 | -0.028 | -0.0332 | 0.0037 |
